Test results: article PMC10364322, “Evaluation of chronic drug-induced electrophysiological and cytotoxic effects using human-induced pluripotent stem cell-derived cardiomyocytes (hiPSC-CMs)” (Frontiers in Pharmacology, 2023)
Where two headings read alike, the source gives them in different places.

Tests used:
[1] = tested on: hiPSC-CMs (iCell-Cardiomyocytes^2); assay: MEA impedance (cytotoxicity readout) in hiPSC-CMs
Procedure: (§1) Cells were seeded according to the instructions of the cell provider, in fibronectin-coated 48-well MEA plates (Axion Cytoview Plates, M768-tMEA-48B) at a density suited to form a monolayer (i.e., 50 K/well) and maintained in culture in a stage incubator (37°C, 5% CO2).
(§2) At least 4 h before the beginning of the baseline measurements, a full medium exchange was performed (to a final volume of 400 µL per well). Neat compounds were dissolved in 100% DMSO at a stock concentration 1000-fold the highest target concentration. […] Afterwards, these stock solutions were diluted with Maintenance medium (CDi), to 10-fold the intended concentration. The final DMSO concentration in test solutions and vehicle control was 0.1%.
(§3) Spontaneous electrical activity was recorded in hiPSC-CMs monolayers as field potentials using the Maestro Pro MEA instrument (Axion Biosystems, Atlanta, GA, United States), which allows the maintenance of accurate temperature and CO2 levels (37°C, 5% CO2). After the plate was placed in the Maestro Pro and allowed to equilibrate for about 10 min, baseline acquisition of field potential and impedance signals was initiated and lasted for 5 min each. […] As impedance measures resistance of an applied alternating current through the hiPSC-CMs monolayer, a reduction in the attachment of hiPSC-CMs to the bottom of the well due to cell death or changes in the monolayer morphology, causes a drop in the impedance signal.
(§4) After the acquisition of all timepoint measurements, raw data were loaded into the data analysis software Axion Cardiac Analysis Tool (V.3.2.3). […] A.csv file containing information on the FP parameters per well, per time point, was then generated and used as input to the in-house data management system (SPEcII v.3.4, Unlimit-IT, Geel, Belgium), where descriptive statistics were calculated. Summary values at different time points after compound addition are expressed as percent change from baseline and shown as mean ± standard deviation (SD).
(§5) The nonparametric Wilcoxon-Mann Whitney Test was used to compare the percent change from the baseline (Δ%) value between the group treated with the compound at a given concentration and the group treated with the DMSO at each matching time points. A two-sided test at 5% significance level was considered. […] To assess the physiological relevance of changes, a tolerance interval of DMSO experiments was calculated at each time point, for each parameter. […] TIs indicate an interval where, with a certain confidence level (1- α = 0.95), a specified proportion (p = 0.80) of percent change for DMSO data falls. The lower and upper limits based on the TI values were used as cut-offs for the interpretation of the changes. For the cytotoxicity assays, measurements of fluorescence (after background fluorescence subtraction) from wells treated with the compounds were normalized by the average value of vehicle experiments (DMSO 0.1%) to obtain a DMSO-corrected, delta/delta percent change. Experiments from each condition, as delta/delta percent, were averaged and expressed as mean ± SD. Statistical analysis was performed using a non-parametric test (Kruskal-Wallis) and each treatment condition was compared to the relative DMSO 0.1%. Differences were considered statistically significant when the p-value was smaller than 0.05.

[2] = tested on: hiPSC-CMs (iCell-Cardiomyocytes^2)
Procedure: as §1, §2, §3
The potential presence of various arrhythmic events was evaluated and noted during the data analysis.
as §4, §5

For `O=C(O)COCCN1CCN(C(c2ccccc2)c2ccc(Cl)cc2)CC1` (centres unmarked) [Cetirizine], the “Imp (impedance), % change from baseline” value ([1]; 0.1 µM, 2h) was -4±4%, the “Imp (impedance), % change from baseline” value ([1]; 0.1 µM, 24h) was -8±1% and the “Imp (impedance), % change from baseline” value ([1]; 0.1 µM, 48h) was -7±2%. The “Imp (impedance), % change from baseline” value ([1]; 0.1 µM, 72h) was -7±3%, the “Imp (impedance), % change from baseline” value ([1]; 0.1 µM, 96h) was -7±4% and the “Imp (impedance), % change from baseline” value ([1]; 0.3 µM, 2h) was -3±3%. For the same compound, the “Imp (impedance), % change from baseline” value ([1]; 0.3 µM, 24h) was -8±2%, the “Imp (impedance), % change from baseline” value ([1]; 0.3 µM, 48h) was -5±4% and the “Imp (impedance), % change from baseline” value ([1]; 0.3 µM, 72h) was -5±6%. For the same compound, the “Imp (impedance), % change from baseline” value ([1]; 0.3 µM, 96h) was -5±6%, the “Imp (impedance), % change from baseline” value ([1]; 1 µM, 2h) was -4±2% and the “Imp (impedance), % change from baseline” value ([1]; 1 µM, 24h) was -7±5%. The “Imp (impedance), % change from baseline” value ([1]; 1 µM, 48h) was -4±7%, the “Imp (impedance), % change from baseline” value ([1]; 1 µM, 72h) was -5±6% and the “Imp (impedance), % change from baseline” value ([1]; 1 µM, 96h) was -4±9%. The “Imp (impedance), % change from baseline” value ([1]; 3 µM, 72h) was -8±7%, the “Imp (impedance), % change from baseline” value ([1]; 3 µM, 96h) was -6±7% and the “Imp (impedance), % change from baseline” value ([1]; 3 µM, 2h) was -3±2%. For the same compound, the “Imp (impedance), % change from baseline” value ([1]; 3 µM, 24h) was -7±4%, the “Imp (impedance), % change from baseline” value ([1]; 3 µM, 48h) was -3±6% and the “BR (beating rate), % change from baseline” value (“BR (beating rate), % change” for short) ([2]; 0.1 µM, 2h) was 2±1%. For the same compound, the “FPD (field-potential duration), % change from baseline” value ([2]; 0.1 µM, 2h) was 3.2±0.7%, the “FPDc (field-potential duration corrected by beat-rate), % change from baseline” value (“FPDc … % change from baseline” for short) ([2]; 0.1 µM, 2h) was 4.1±0.9% and the “BR (beating rate), % change” value ([2]; 0.1 µM, 24h) was 2±2%. For the same compound, the “FPD (field-potential duration), % change from baseline” value ([2]; 0.1 µM, 24h) was 8.9±2.4%, the “FPDc … % change from baseline” value ([2]; 0.1 µM, 24h) was 9.7±1.6% and the “BR (beating rate), % change” value ([2]; 0.1 µM, 48h) was -1±3%. For the same compound, the “FPD (field-potential duration), % change from baseline” value ([2]; 0.1 µM, 48h) was 8.3±2.5%, the “FPDc … % change from baseline” value ([2]; 0.1 µM, 48h) was 8±2.9% and the “BR (beating rate), % change” value ([2]; 0.1 µM, 72h) was 0±2%. For the same compound, the “FPD (field-potential duration), % change from baseline” value ([2]; 0.1 µM, 72h) was 7.8±1.4%, the “FPDc … % change from baseline” value ([2]; 0.1 µM, 72h) was 7.6±1.5% and the “BR (beating rate), % change” value ([2]; 0.1 µM, 96h) was -5±2%. For the same compound, the “FPD (field-potential duration), % change from baseline” value ([2]; 0.1 µM, 96h) was 8.9±2.9%, the “FPDc … % change from baseline” value ([2]; 0.1 µM, 96h) was 7.1±3.5% and the “BR (beating rate), % change” value ([2]; 0.3 µM, 2h) was 2±3%. For the same compound, the “FPD (field-potential duration), % change from baseline” value ([2]; 0.3 µM, 2h) was 2.9±2.5%, the “FPDc … % change from baseline” value ([2]; 0.3 µM, 2h) was 3.8±2.3% and the “BR (beating rate), % change” value ([2]; 0.3 µM, 24h) was 2±2%. For the same compound, the “FPD (field-potential duration), % change from baseline” value ([2]; 0.3 µM, 24h) was 12.5±1.8%, the “FPDc … % change from baseline” value ([2]; 0.3 µM, 24h) was 13±1.9% and the “BR (beating rate), % change” value ([2]; 0.3 µM, 48h) was -4±3%. The “FPD (field-potential duration), % change from baseline” value ([2]; 0.3 µM, 48h) was 12.1±2.3%, the “FPDc … % change from baseline” value ([2]; 0.3 µM, 48h) was 10.4±2.2% and the “BR (beating rate), % change” value ([2]; 0.3 µM, 72h) was -4±1%. For the same compound, the “FPD (field-potential duration), % change from baseline” value ([2]; 0.3 µM, 72h) was 9.2±4.1%, the “FPDc … % change from baseline” value ([2]; 0.3 µM, 72h) was 7.7±3.7% and the “BR (beating rate), % change” value ([2]; 0.3 µM, 96h) was -6±2%. The “FPD (field-potential duration), % change from baseline” value ([2]; 0.3 µM, 96h) was 10.3±1.1%, the “FPDc … % change from baseline” value ([2]; 0.3 µM, 96h) was 8.2±1.1% and the “BR (beating rate), % change” value ([2]; 1 µM, 2h) was 3±2%. The “FPD (field-potential duration), % change from baseline” value ([2]; 1 µM, 2h) was 3.3±5.6%, the “FPDc … % change from baseline” value ([2]; 1 µM, 2h) was 4.5±5% and the “BR (beating rate), % change” value ([2]; 1 µM, 24h) was 1±4%. For the same compound, the “FPD (field-potential duration), % change from baseline” value ([2]; 1 µM, 24h) was 19.3±18.2%, the “FPDc … % change from baseline” value ([2]; 1 µM, 24h) was 19.6±16.4% and the “BR (beating rate), % change” value ([2]; 1 µM, 48h) was -4±4%. The “FPD (field-potential duration), % change from baseline” value ([2]; 1 µM, 48h) was 20.8±13.7%, the “FPDc … % change from baseline” value ([2]; 1 µM, 48h) was 19±15% and the “BR (beating rate), % change” value ([2]; 1 µM, 72h) was -6±2%. The “FPD (field-potential duration), % change from baseline” value ([2]; 1 µM, 72h) was 17.3±16.7%, the “FPDc … % change from baseline” value ([2]; 1 µM, 72h) was 15.4±17.1% and the “BR (beating rate), % change” value ([2]; 1 µM, 96h) was -6±5%. For the same compound, the “FPD (field-potential duration), % change from baseline” value ([2]; 1 µM, 96h) was 19±15.6%, the “FPDc … % change from baseline” value ([2]; 1 µM, 96h) was 16.5±16.6% and the “BR (beating rate), % change” value ([2]; 3 µM, 72h) was -5±2%. For the same compound, the “FPD (field-potential duration), % change from baseline” value ([2]; 3 µM, 72h) was 12.9±3.8%, the “FPDc … % change from baseline” value ([2]; 3 µM, 72h) was 11.2±3% and the “BR (beating rate), % change” value ([2]; 3 µM, 96h) was -5±5%. For the same compound, the “FPD (field-potential duration), % change from baseline” value ([2]; 3 µM, 96h) was 14.4±6.3%, the “FPDc … % change from baseline” value ([2]; 3 µM, 96h) was 12.1±5% and the “BR (beating rate), % change” value ([2]; 3 µM, 2h) was 3±2%. The “FPD (field-potential duration), % change from baseline” value ([2]; 3 µM, 2h) was 4.9±3.1%, the “FPDc … % change from baseline” value ([2]; 3 µM, 2h) was 6.1±3.3% and the “BR (beating rate), % change” value ([2]; 3 µM, 24h) was 1±4%. For the same compound, the “FPD (field-potential duration), % change from baseline” value ([2]; 3 µM, 24h) was 14.6±2.3%, the “FPDc … % change from baseline” value ([2]; 3 µM, 24h) was 15.2±2.8 % and the “BR (beating rate), % change” value ([2]; 3 µM, 48h) was -5±2%. For the same compound, the “FPD (field-potential duration), % change from baseline” value ([2]; 3 µM, 48h) was 14.5±3.8% and the “FPDc … % change from baseline” value ([2]; 3 µM, 48h) was 12.5±3%.
